ChEMBL document CHEMBL1201862, “PubChem BioAssay data set” (2004)
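Tested at 5 concentrations; 48 h exposure; 96-well plates; endpoints linearly interpolated, else capped at highest concentration. GI50 marks 50% less growth.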 Activity calls are given as the source filed them. Cut-off read from the data, not from the text of the source: active = GI50 up to about 1.1 µM and inactive = higher.

What was measured:
Test in all cases: growth of human tumour cells (NCI), 48 h
M14 = test system: M14
HL-60 = test system: HL-60
KM12 = test system: KM12
RPMI-8226 = test system: RPMI-8226
SN12C = test system: SN12C
SW-620 = test system: SW-620
SF-539 = test system: SF-539
HT-29 = test system: HT-29
IGROV-1 = test system: IGROV-1
SR = test system: SR
U-251 = test system: U-251
SNB-19 = test system: SNB-19
CCRF-CEM = test system: CCRF-CEM
SK-MEL-28 = test system: SK-MEL-28
SF-268 = test system: SF-268
A549 = test system: A549
HCT-116 = test system: HCT-116
CAKI-1 = test system: CAKI-1
SF-295 = test system: SF-295
SK-OV-3 = test system: SK-OV-3

Compound	GI50 (M14)	GI50 (HL-60)	GI50 (KM12)	GI50 (RPMI-8226)	GI50 (SN12C)	GI50 (SW-620)	GI50 (SF-539)	GI50 (HT-29)	GI50 (IGROV-1)	GI50 (SR)	GI50 (U-251)	GI50 (SNB-19)	GI50 (CCRF-CEM)	GI50 (SK-MEL-28)	GI50 (SF-268)	GI50 (A549)	GI50 (HCT-116)	GI50 (CAKI-1)	GI50 (SF-295)	GI50 (SK-OV-3)
CCCc1[nH]c(SCCCCCCCCSc2nc(-c3ccc(F)cc3)c(CCC)[nH]2)nc1-c1ccc(F)cc1	17.3 µM (inactive)	6.5 µM (inactive)	35.2 µM (inactive)	1.98 µM (inactive)	9.42 µM (inactive)	> 100 µM (inactive)	6.21 µM (inactive)	62.7 µM (inactive)	37.7 µM (inactive)	7.08 µM (inactive)	18.7 µM (inactive)	21.3 µM (inactive)	6.59 µM (inactive)	26.7 µM (inactive)	3.33 µM (inactive)	11.3 µM (inactive)	5.42 µM (inactive)			
C#C[C@H](CCCC)OC(=O)N[C@H](C)c1ccccc1	41.8 µM (inactive)	17.5 µM (inactive)	51.3 µM (inactive)	24.5 µM (inactive)	> 100 µM (inactive)	68.2 µM (inactive)		40.2 µM (inactive)	75.3 µM (inactive)	26.9 µM (inactive)	59.8 µM (inactive)	> 100 µM (inactive)	34.6 µM (inactive)	54.5 µM (inactive)	63.7 µM (inactive)	36.1 µM (inactive)	24 µM (inactive)	52.6 µM (inactive)	75 µM (inactive)	> 100 µM (inactive)
COc1ccc(NC2Oc3cc4c(cc3C(c3cc(OC)c(O)c(OC)c3)C2C)OCO4)cc1 (centres undefined)	5.36 µM (inactive)	1.79 µM (inactive)	4.78 µM (inactive)	3.15 µM (inactive)	2.76 µM (inactive)	3.5 µM (inactive)	4.2 µM (inactive)	3.82 µM (inactive)	5.55 µM (inactive)	0.202 µM (active)	4.65 µM (inactive)	21.4 µM (inactive)		3.73 µM (inactive)	14.7 µM (inactive)	3.56 µM (inactive)	4.43 µM (inactive)	10.4 µM (inactive)	4.78 µM (inactive)	
COC(=O)C#CC(N)=O	19.5 µM (inactive)	4.94 µM (inactive)	> 100 µM (inactive)		> 100 µM (inactive)	23.8 µM (inactive)	> 100 µM (inactive)	> 100 µM (inactive)	> 100 µM (inactive)	24.2 µM (inactive)	> 100 µM (inactive)	> 100 µM (inactive)	13.9 µM (inactive)	17.9 µM (inactive)	> 100 µM (inactive)	> 100 µM (inactive)	98.2 µM (inactive)	28.1 µM (inactive)	> 100 µM (inactive)	> 100 µM (inactive)
NC(=O)c1oc([N+](=O)[O-])c(-c2ccccc2)c1-c1ccccc1	17.7 µM (inactive)	25.1 µM (inactive)	13.6 µM (inactive)		0.0367 µM (active)	27 µM (inactive)	18.5 µM (inactive)	27.2 µM (inactive)	12.9 µM (inactive)	6.27 µM (inactive)	24.3 µM (inactive)	38.5 µM (inactive)	19.1 µM (inactive)	44 µM (inactive)	37.6 µM (inactive)	21.1 µM (inactive)	15.4 µM (inactive)	18.4 µM (inactive)	15.8 µM (inactive)	36.1 µM (inactive)
CC(=O)N(C)SCC(NC(=O)C(Cc1ccccc1)NC(=O)OCc1ccccc1)C(=O)NC(Cc1ccccc1)C(=O)NC(Cc1cn(C=O)c2ccccc12)C(=O)NC(CCCCNC(=O)OCc1ccccc1)C(=O)NC(C(=O)NC(CSN(C)C(C)=O)C(=O)NO)C(C)OCc1ccccc1 (centres undefined)	> 100 µM (inactive)	> 100 µM (inactive)	> 100 µM (inactive)	> 100 µM (inactive)	> 100 µM (inactive)	> 100 µM (inactive)	> 100 µM (inactive)	> 100 µM (inactive)	> 100 µM (inactive)	> 100 µM (inactive)	> 100 µM (inactive)	> 100 µM (inactive)	> 100 µM (inactive)	> 100 µM (inactive)	> 100 µM (inactive)	> 100 µM (inactive)	> 100 µM (inactive)		> 100 µM (inactive)	> 100 µM (inactive)
CCOC(=O)N/N=C(/N)Cc1ccccc1	> 100 µM (inactive)	> 100 µM (inactive)	> 100 µM (inactive)		> 100 µM (inactive)	> 100 µM (inactive)	> 100 µM (inactive)		> 100 µM (inactive)	> 100 µM (inactive)	> 10 µM (inactive)	> 100 µM (inactive)	> 100 µM (inactive)	> 100 µM (inactive)	> 100 µM (inactive)	> 100 µM (inactive)	> 100 µM (inactive)	> 100 µM (inactive)	> 100 µM (inactive)	> 100 µM (inactive)
